Experimental data reported in PubChem BioAssay AID179 (DTP/NCI, 2004).
Calls of active or inactive are those of the source.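 Rule for the calls: active = compounds giving half or more protection of infected cells from virus-caused growth loss, again on retest; inactive = the rest.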

System: CEM cells HIV-1 protection, formazan growth assay
Assay: NCI AIDS Antiviral Assay
Settings: for IC50: measured here: growth of uninfected CEM cells
Summary of the method: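 Five concentrations of each compound were applied to infected and uninfected human CEM cells. Protection from HIV-1 was judged from growth measured with a soluble formazan assay.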

Row | SMILES | EC50 | IC50 | outcome
1 | Cc1ccnc(NC(=O)Nc2cc(F)ccc2F)c1 | > 200 µM | > 200 µM | 
2 | CCOC(=O)/C(=C\c1cccc(C(F)(F)F)c1)[Se]c1ccccc1 | > 18.2 µM | > 18.2 µM | 
3 | CC(O[Si](C)(C)C(C)(C)C)[C@H](NC(=O)OCC(Cl)(Cl)Cl)C(=O)O (some centres undefined) | > 617 µM | > 100 µM | 
4 | COC(=O)C1=C(O)C(C(=O)OC)[C@@]2(O)[C@@H](C(=O)OC)[C@H](C)C[C@@H]1[C@@H]2C(=O)OC (some centres undefined) | > 200 µM | 39.8 µM | 
5 | COc1cc(Br)c(-c2coc3c(OC)c(OC)ccc3c2=O)cc1OC | > 50.1 µM | > 50.1 µM | 
6 | O=C(NCc1ccccc1)/C(=C/c1ccc2c(c1)OCO2)NC(=O)c1ccccc1 | > 200 µM | > 200 µM | 
7 | C=C1CCCCCCCCCCC1S(=O)c1ccccc1 (centres undefined) | > 200 µM | 12 µM | 
8 | CCOC(=O)c1c(C(=O)OC)nc2n1-c1ccccc1OC2 | > 832 µM | 64.6 µM | 
9 | CN(C)CCn1c2c(c3ccccc31)CCc1ccccc1-2 | > 200 µM | 15.5 µM | 
10 | CCOP(=O)(C/C=C\Cn1cnc(C(N)=O)c1N)OCC | > 200 µM | > 200 µM | 
11 | O=C1OI(C#Cc2ccccc2)c2ccccc21 | > 20 µM | 3.31 µM | 
12 | O=C1CC2(C(=O)O1)C1C(=O)OC(=O)C1C1c3ccccc3C=NN12 (centres undefined) | > 692 µM | > 692 µM | 
13 | O=C(/C=C/c1ccccc1O)c1ccccc1Cl | > 38.9 µM | > 38.9 µM | 
14 | C/C=C(\NC(=O)C(CCCCN)NC(=O)C(C)NC(=O)C1CSC(C)C(NC(=O)C2CSCC(NC(=O)C(C)NC(=O)C(N)C(C)CC)C(=O)NC(CCCCN)C(=O)NC(Cc3ccccc3)C(=O)NC(CC(C)C)C(=O)N2)C(=O)N2CCCC2C(=O)NCC(=O)N1)C(=O)NCC(=O)NC1CSCC2NC(=O)C(Cc3ccc(O)cc3)NC(=O)C(CSC=CNC2=O)NC(=O)C(CC(N)=O)NC(=O)C(Cc2ccccc2)NC1=O (centres undefined) |  |  | inactive
15 | CC(=O)N/N=C1\CC(C)(C)C2CCC1C2 (centres undefined) |  |  | inactive
16 | O=C1CCCCCN1c1ccccn1 | > 1320 µM | > 1320 µM | 
17 | CNC(=O)N1CN(c2ccccc2)C2(CCN(CCCC(=O)c3ccc(F)cc3)CC2)C1=O | > 200 µM | 10.5 µM | 
18 | N#C/C(=C\c1ccc(O)cc1)c1ccc([N+](=O)[O-])cc1 | > 200 µM | 174 µM | 
19 | CC(=O)OC1CC2C(C)(C)CCCC2(C)C2C(=O)C(O)=C(C(C)C)C(=O)C12 (centres undefined) | > 200 µM | 2.82 µM | 
20 | CCOC(=O)c1cc(/C=C/C(C)=C/C(=O)OC)oc1-c1ccccc1 |  |  | inactive
21 | COc1ccc(N2CC(=O)N(C(=O)COc3ccc(OCC(=O)N4C(=O)CN(c5ccc(OC)cc5)C4=S)cc3)C2=S)cc1 | > 200 µM | 87.1 µM | 

Row | SMILES | EC50 | IC50 | outcome
22 | Clc1ccc(C2N3CCCCC3[C@@H]3c4[nH]c5ccccc5c4CCN23)cc1 (some centres undefined) | > 19.1 µM | > 19.1 µM | 
23 | COc1ccc(N/C=C2\C(=O)CCc3c2oc2cc(Cl)c(O)c(Cl)c32)cc1 | > 200 µM | 28.8 µM | 
24 | CCc1c2[n-]c(c1C)/C=c1\[n-]/c(c(C)c1CC)=C\c1[n-]c(c(CCC(=O)O)c1C)/C=c1\[n-]/c(c(C)c1CCC(=O)O)=C\2.[Zn] | > 21.4 µM | 13.5 µM | 
25 | CCCCC1Sc2cc(OC)cc(N)c2NC1=O (centres undefined) | > 200 µM | 158 µM | 
26 | COC(=O)CN1CCSC1=NC#N |  |  | inactive
27 | Clc1nc(Cl)nc(Nc2cccc3ccccc23)n1 | > 200 µM | 107 µM | 
28 | C=C(C)C(=O)O[C@H]1[C@H]2[C@H](OC(=O)[C@H]2C)[C@H](O)[C@@H](C)[C@@H]2C=CC(=O)[C@]21C | > 363 µM | 1.91 µM | 
29 | N#C/C(=C\n1ccc(=O)[nH]c1=S)C(=O)c1ccc2ccccc2c1 | > 200 µM | 123 µM | 
30 | NC1=CNC(=O)C1 | > 138 µM | > 138 µM | 
31 | CCOC(=O)c1cc2ccccc2cc(C(=O)OCC)c1=O | > 200 µM | 34.7 µM | 
32 | Cc1sc(/N=C/C2=C(O)CC(C)(C)CC2=O)nc1-c1ccccc1 | > 200 µM | 64.6 µM | 
33 | O=C(CN1CCN(Cc2ccccc2)CC1)c1ccc2[nH]c(=O)oc2c1 | > 200 µM | 158 µM | 
34 | O=C1OC(C(=O)O)c2ccc3c(c21)OCO3 (centres undefined) | > 398 µM | > 398 µM | 
35 | CCOP(=O)(OCC)/C(C#N)=C/C=C/c1ccco1 | > 646 µM | 148 µM | 
36 | CC1(C2COC(=O)C2)SCCCS1 (centres undefined) | > 100 µM | 60.3 µM | 
37 | CC(=O)Nc1ccc(S(=O)(=O)NN(C)S(=O)(=O)c2ccc(C)cc2)cc1 | > 18.2 µM | > 18.2 µM | 
38 | CCOC(=O)N1CCN(C(=O)Nc2cccc3ccccc23)CC1 |  |  | inactive
39 | CC1(C)OC(=O)C(CC(=O)O)O1 (centres undefined) |  |  | inactive
40 | Cn1c(=O)cc(N=Nc2ccc(Cl)c(Cl)c2)[nH]c1=O | > 200 µM | 16.2 µM | 
41 | CC1c2c(cc(=O)n(C)c2O)C(=O)N1Cc1ccccc1 (centres undefined) | > 347 µM | 257 µM | 
42 | Nc1ccc(/C=C/c2ccc(NS(=O)(=O)c3ccnc4c(O)c(C(=O)O)ccc34)cc2S(=O)(=O)O)c(S(=O)(=O)O)c1 | 69.2 µM | > 100 µM | 

Row | SMILES | EC50 | IC50 | outcome
43 | CC(=O)Oc1c(C(C)C)cc2c(c1OC(C)=O)CC1(C)OC(=O)CC(C)(C)C1=CC2 (centres undefined) |  |  | inactive
44 | Nc1c(-c2nc3ccccc3s2)c2ccc([N+](=O)[O-])cc2c(=O)n1-c1cccc(C(=O)O)c1 | 7.76 µM | 37.2 µM | 
45 | CC(C)CCC[C@@H](C)C1CCC2[C@@H]3CC(OS(=O)(=O)O)C4C[C@@H](O)CC[C@]4(C)C3CC[C@@]21C (some centres undefined) | > 49 µM | > 49 µM | 
46 | COc1cc2c(cc1OC)C(=O)/C(=C/c1ccc(O)cc1)CC2 |  |  | inactive
47 | CC(C)(C)C(=O)[O-].N.N.N.N.N.[Co+3].[O-][Cl+3]([O-])([O-])[O-] |  |  | inactive
48 | O=C(Cn1c(=O)sc2ccc(Cl)cc21)N1CCN(CCO)CC1 | > 200 µM | > 200 µM | 
49 | Cc1cc(N=Nc2ccc([N+](=O)[O-])cc2)c(NCC(O)C(O)C(O)CO)cc1C (centres undefined) | > 200 µM | 34.7 µM | 
50 | NC1=N/N=C(c2ccccc2)\C=C/C(c2ccccc2)=N\1 | > 19.1 µM | > 19.1 µM | 
51 | CCOC(=O)/C=C1\CCCn2c1ncc(C(=O)OCC)c2=O | > 200 µM | 3.63 µM | 
52 | CCOC(=O)C(C#N)(Cc1ccc2ccccc2n1)Cc1ccc2ccccc2n1 | > 200 µM | > 200 µM | 
53 | CC(=O)N/C(=C\C=C\CC=O)SC12CC3CC(CC(C3)C1)C2 | > 200 µM | 12.6 µM | 
54 | CC1C[C@H](C)CC(C(O)CC2CC(=O)N(Cc3ccccc3)C(=O)C2)C1O (some centres undefined) | > 200 µM | > 200 µM | 
55 | COC(=O)C(C)(N=Cc1ccccc1)c1ccccc1 (centres undefined) | > 200 µM | > 200 µM | 
56 | CC(C)NC(=O)OCc1c(COC(=O)NC(C)C)c(-c2ccc(Cl)c(Cl)c2)n2c1CS(=O)(=O)C2 | > 200 µM | 42.7 µM | 
57 | COc1nc2c(c(=O)n1C)N[C@H]1[C@H](OC(C)=O)[C@@H](OC(C)=O)CO[C@H]1N2 | > 200 µM | > 200 µM | 
58 | CC/C(=C(\CC)c1ccc(OCCCN2CCCCC2C)cc1)c1ccc(OCCCN2CCCCC2C)cc1 (centres undefined) | > 20 µM | 2.29 µM | 
59 | CCOC(=O)C1SC(=Nc2ccccc2)N=C1C (centres undefined) |  |  | inactive
60 | COc1ccc(NC(=O)/C(=C/c2ccccc2)C(C)=O)cc1 | > 123 µM | 18.6 µM | 
61 | O=C(NN=C1CCCCC1)NN=C1CCCCC1 | > 100 µM | > 100 µM | 
62 | Nc1c(N=Nc2ccc([N+](=O)[O-])cc2)c(S(=O)(=O)O)cc2cc(S(=O)(=O)O)c(N=Nc3ccccc3)c(O)c12 | > 151 µM | > 151 µM | 
63 | O=C(/C=C/c1ccc(F)c(F)c1)OCCc1ccccc1 | > 200 µM | 38.9 µM | 

Row | SMILES | EC50 | IC50 | outcome
64 | CCC[CH2][Sn]([CH2]CCC)([S]c1cccc2cccnc12)[S]c1cccc2cccnc12 |  |  | inactive
65 | CC1=CO[C@@H]2O[C@@]3(C)CC[C@H]4[C@H](C)CC[C@@H]1[C@@]24O3 | > 200 µM | > 200 µM | 
66 | CC1CCCCCC(=O)c2c(O)cc(O)cc2CC(=O)O1 (centres undefined) | > 851 µM | 117 µM | 
67 | CC(C)C(NC(=O)OC(C)(C)C)C(=O)N1CC[C@@H](O)[C@H]1C(O)CC(=O)OC(C)(C)C (some centres undefined) | > 200 µM | > 200 µM | 
68 | CCCCCCCCCCCCCC(=O)CSCCNC(=O)CCNC(=O)[C@@H](O)C(C)(C)COP(=O)(O)OP(=O)(O)OCC1OC(n2cnc3c(N)ncnc32)C(O)C1OP(=O)(O)O (some centres undefined) |  |  | inactive
69 | CCCCNC(=O)OCCN=C1c2ccccc2C(Br)C(Br)c2ccccc21 (centres undefined) | > 200 µM | 26.9 µM | 
70 | Cc1cc(=O)oc(C)c1C(=O)O | > 200 µM | > 200 µM | 
71 | O=c1cc2n(c(=O)[nH]1)C1OC(C(O)C1O)[C@@H]2CCO (some centres undefined) |  |  | inactive
72 | CC(C)(C)c1cc(C(P(=O)(c2ccccc2)c2ccccc2)P(=O)(c2ccccc2)c2ccccc2)cc(C(C)(C)C)c1O | > 200 µM | 3.24 µM | 
73 | c1ccc(NNN2NC(c3ccccc3)C2c2ccccc2)cc1 (centres undefined) | > 200 µM | > 200 µM | 
74 | COC(=O)/C=C/CCC#Cc1ccccc1C#CCC/C=C/C(=O)OC | > 200 µM | 2.82 µM | 
75 | CC(=O)[O-].O=S(=O)(Nc1ncccn1)c1ccc(N=Cc2ccccc2O)cc1.O=S(=O)(Nc1ncccn1)c1ccc(N=Cc2ccccc2O)cc1.[Co+2] | > 200 µM | 39.8 µM | 
76 | OCCSCc1cc2c(O)c(c1)Cc1cc(CSCCO)cc(c1O)Cc1cc(CSCCO)cc(c1O)Cc1cc(CSCCO)cc(c1O)C2 | > 24 µM | 5.01 µM | 
77 | Cc1cccc2c1Oc1ccccc1C2NC(=O)CN(C)C (centres undefined) | > 437 µM | 83.2 µM | 
78 | O=c1c(O)c(-c2ccccc2)oc2c(CP(=O)(O)O)cccc12 | > 200 µM | 162 µM | 
79 | CC(C)c1ccc2c(c1)CCC1C(C)(C)[C@@H](O)CC[C@]21C (some centres undefined) | > 66.1 µM | 37.2 µM | 
80 | Cc1cccc2[nH]c3c(c(O)cc4[nH]c5cccc(C)c5c(=O)c43)c(=O)c12 | > 200 µM | 20.9 µM | 
81 | Nc1ccc(I)cn1 | > 200 µM | > 200 µM | 
82 | NC(=O)COC(=O)c1c(Cl)nc2sccn12 | > 347 µM | > 347 µM | 
83 | CCC(C)OC(=O)/C(Br)=C1/OC(=O)c2ccccc2-c2ccccc21 (centres undefined) | > 200 µM | 47.9 µM | 
84 | O=C1OC(=O)C([Se]c2ccccc2)=C1[Se]c1ccccc1 |  |  | inactive
